Data taken from patent publication US6916851B2, “Skin care cosmetic methods of sebum control using carboxyalkylates of branched alcohols and/or alkoxylates thereof” (Unilever Home & Personal Care USA, a division of Conopco, …, priority 2002, dated 2005).
pIC50: −log10 of the molar value. Marks after values point to notes of the source that are not given here.

Tested on: human sebocytes
Assay: Inhibition of sebocyte lipogenesis (14C-acetate label remaining in sebocytes)
Format: cell-based
Conditions: for radioactive label remaining in the sebocytes, % of Control / pIC50: 20 hour incubation, 96 well plate; for radioactive label remaining in the sebocytes, % of Control: lower = greater inhibition of lipogenesis; for pIC50: read-out: IC 50 (concentration which provides a 50% sebum suppression relative to the control); for inhibition of lipogenesis, in words: all tested concentrations (1, 10, 100 μM)
Procedure: Secondary cultures of human sebocytes obtained from an adult […] were grown in 96-well tissue culture plates (Packard Co.; Meriden, Conn.) until confluent. Sebocyte growth medium consisted of Clonetics Keratinocyte Basal Medium (KBM) supplemented with 14 μg/ml bovine pituitary extract, 0.4 μg/ml hydrocortisone, 5 μg/ml insulin, 10 ng/ml epidermal growth factor, 1.2×10^−10 M cholera toxin, 100 units/ml penicillin, and 100 μg/ml streptomycin. All cultures were incubated at 37° C. in the presence of 7.5% CO2. Medium was changed three times per week.
On the day of experimentation, the growth medium was removed and the sebocytes washed three times with sterile Dulbecco's Modified Eagle Medium (DMEM; phenol red free). Fresh DMEM was added to each sample (duplicates, triplicates, or quadruplicates depending on the experiment) with 5 μL of test agent solubilized in ethanol or sterile, distilled water. Controls consisted of addition of ethanol alone or phenol red. Phenol Red, a known sebum suppressive agent, was employed as a positive control.
Each plate was returned to the incubator for 20 hours followed by the addition of ^14C-acetate buffer (5 mM final concentration, 56 mCi/mmol specific activity). Sebocytes were returned to the incubator for four hours after which each culture was rinsed three times with phosphate buffered saline to remove unbound label. Radioactive label remaining in the sebocytes was harvested and counted using a TopCount-NXT brand scintillation counter (Packard Co., Meriden, Conn.).
The results that were obtained, expressed in terms of amount of radioactive label remaining in the sebocytes as a percent of control, are summarized in Table 2. A lower radioactive label, i.e. a lower % of control, indicates a greater inhibition of sebocyte lipogenesis.
The experiments were conducted using the procedure set forth in the Example 3 above, with the concentrations of the compounds varied, in order to determine the concentration for each compound tested which provide a 50% sebum suppression.

Row | Molecule | radioactive label remaining in the sebocytes, % of Control (100 μM) | pIC50 | other results
1 | O=S1(=O)OC(c2ccc(O)cc2)(c2ccc(O)cc2)c2ccccc21 [Phenol Red] | 46.3* % of Control | – | –
2 | C13 isoalcohol glycerol [Compound 5] | – | < 4.00 | –
3 | C13 isoalcohol [Compound 4] | – | 4.00 | –
4 | iso-tridecyloxy propionic acid [Compound 1] | 11.9* % of Control | 5.30 | radioactive label remaining in the sebocytes, % of Control (1 μM): 48.7* % of Control; radioactive label remaining in the sebocytes, % of Control (10 μM): 34.6* % of Control; inhibition of lipogenesis, in words: enhanced inhibition of lipogenesis at all tested concentrations; effectiveness in inhibition of lipogenesis relative to TDCM (comparison of Table 2 data): almost twice as effective as TDCM; activity as sebum suppressant relative to the branched alcohol from which it is derived (from IC50 of Table 3): about 20 times
5 | C13 isoalcohol propionitrile [Compound 2] | – | < 4.00 | –
6 | tridecylcarboxymethylate [TDCM] | 22.8* % of Control | – | radioactive label remaining in the sebocytes, % of Control (1 μM): 84.8* % of Control; radioactive label remaining in the sebocytes, % of Control (10 μM): 43.4* % of Control; inhibition of lipogenesis, in words: enhanced inhibition of lipogenesis at all tested concentrations
7 | C13 isoalcohol oxypropyl amine [Compound 3] | – | ~4.00 | –
